Source: patent US9322066B2, “Predictors for cancer treatment” (priority 2011, dated 2016)

Test system: relapsed or refractory, rituximab-naive or -sensitive follicular B-cell NHL
Assay: Progression-free survival (PFS), Vc-R vs rituximab study, by biomarker
Format: in vivo, human
Text: Non-Hodgkin lymphoma (NHL) encompasses several unique malignant lymphoid disease entities that vary in clinical behavior, morphologic appearance, immunologic, and molecular phenotype. […] A randomized, open-label, active-controlled, multicenter, multinational, prospective study to compare the efficacy and safety of the combination of bortezomib and rituximab (Vc-R) to single-agent rituximab in subjects who have relapsed or refractory, rituximab-naive or -sensitive follicular B-cell NHL was performed.
Subjects were centrally randomized to Treatment Groups A (Vc-R) or B (rituximab) in a 1:1 ratio taking into account the following stratification factors: • Follicular Lymphoma International Prognostic Index (FLIPI) score (low [0 or 1 factor], intermediate [2 factors], high [≧3 factors]); • Prior rituximab therapy (yes, no); • Time since last dose of anti-lymphoma therapy (≦1 year, >1 year); • Region (United States/Canada, European Union, Rest of World).
The following clinical endpoints were included in the analysis within each treatment group and an overall comparison was made with the biomarker-related endpoints: Progression-free survival, defined as the interval between the date of randomization and the date of progressive disease (PD) or death, whichever is first reported in the ITT population; overall survival; overall response rate (complete response [CR]+CR unconfirmed [CRu]+partial response [PR]); overall CR rate (CR+CRu); duration of response; time to next anti-lymphoma therapy; and treatment free interval.
For single-marker association analyses and pair-wise comparisons, a log rank test and Cox proportional hazard model was utilized for assessments of PFS, TTP, and OS between the treatment groups. Kaplan-Meier curves were utilized to estimate the distribution differences between groups in the time-to-event analyses. Comparison of the response rates between the treatment groups was conducted using the Fishers exact test. Single-marker association analyses were stratified by the covariates.
For pair-wise comparison analysis, biomarker pairs were formed by combinations of two markers. A log rank test was utilized for assessments of PFS, TTP, and OS between the treatment groups in the subpopulation defined by biomarker pairs. Kaplan-Meier curves were utilized to estimate the distribution differences between groups in the time-to-event analyses. Comparison of the response rates between the treatment groups was conducted using the Fishers exact test. Methods of Analysis for the multiple biomarker comparison models can be found in section 4.6.
The stratified log rank test and Cox proportional hazard model was utilized for assessments of PFS between the treatment groups. The Kaplan-Meier method was to be used to estimate the distribution of overall PFS for each treatment group in the biomarker population, and overall; stratified by expression level, SNP, or mutation (or covariate groups as noted above). The hazard ratio and 95% confidence interval was based on a stratified Cox's proportion hazard model with treatment as the explanatory variable. Analyses were done for the population overall and by treatment group, and each of these analyses were also stratified by the following factors if sufficient sample size existed: […]

rituximab
Median PFS (Vc-R vs R) (PSMB1/P11A C/G + P65 % POSITIVE CYTOPLASMIC SIGNAL >90%, Excluded): 348 days | Median PFS (Vc-R vs R) (PSMB1/P11A C/G + P65 % POSITIVE CYTOPLASMIC SIGNAL >90%, Selected): 278 days | Median PFS (Vc-R vs R) (PSMB1/P11A C/G + P65 % POSITIVE CYTOPLASMIC SIGNAL >90%, Total): 338 days | Median PFS (Vc − R vs R) (PSMB1/P11A C/G + PSMB9/R60H G/G, Excluded): 346 days | Median PFS (Vc − R vs R) (PSMB1/P11A C/G + PSMB9/R60H G/G, Selected): 288 days | Median PFS (Vc − R vs R) (PSMB1/P11A C/G + PSMB9/R60H G/G, Total): 345 days | Median PFS (Vc-R vs R) (PSMB1/P11A G/G + PSMB5/R24C C/T, Excluded): 345 days | Median PFS (Vc-R vs R) (PSMB1/P11A G/G + PSMB5/R24C C/T, Selected): 237.5 days | Median PFS (Vc-R vs R) (PSMB1/P11A G/G + PSMB5/R24C C/T, Total): 345 days | Median PFS (Vc − R vs R) (PSMB5/R24AC C/C + 20S % NUCLEAR STAINING 30-90, Excluded): 346 days | Median PFS (Vc − R vs R) (PSMB5/R24C C/C + 20S % NUCLEAR STAINING 30-90, Selected): 281 days | Median PFS (Vc − R vs R) (PSMB5/R24C C/C + 20S % NUCLEAR STAINING 30-90, Total): 345 days | PFS median (PSMB5/R24C C/T): 9.3 mo | PFS median (PSMB5/R24C C/T & CD68 POSITIVE FOLLICULAR: 0-50): 7.2 mo | PFS median (PSMB5/R24C C/T & P65 INTENSITY CYTOPLASMIC SIGNAL <=1+): 10.4 mo | Median PFS (Vc-R vs R) (PSMB5/R24C C/T + CD68 POSITIVE FOLLICULAR 0-50, Total): 345 days | Median PFS (Vc-R vs R) (PSMB9/R60H A/G + 20S % POSITIVE CYTOPLASMIC SIGNAL 95-100, Excluded): 347 days | Median PFS (Vc-R vs R) (PSMB9/R60H A/G + 20S % POSITIVE CYTOPLASMIC SIGNAL 95-100, Selected): 273 days | Median PFS (Vc-R vs R) (PSMB9/R60H A/G + 20S % POSITIVE CYTOPLASMIC SIGNAL 95-100, Total): 345 days | Median PFS (Vc − R vs R) (PSMB9/R60H A/G + CD68 OVERALL POSITIVE 0-50, Excluded): 349 days | Median PFS (Vc − R vs R) (PSMB9/R60H A/G + CD68 OVERALL POSITIVE 0-50, Selected): 273 days | Median PFS (Vc − R vs R) (PSMB9/R60H A/G + CD68 OVERALL POSITIVE 0-50, Total): 345 days | Median PFS (Vc-R vs R) (PSMB9/R60H A/G + CD68 POSITIVE FOLLICULAR 0-50, Excluded): 349 days | Median PFS (Vc-R vs R) (PSMB9/R60H A/G + CD68 POSITIVE FOLLICULAR 0-50, Selected): 273 days | Median PFS (Vc-R vs R) (PSMB9/R60H A/G + CD68 POSITIVE FOLLICULAR 0-50, Total): 345 days | PFS median (PSMB9/R60H G/G & P65 % NUCLEAR STAINING: >0): 9.5 mo | Median PFS (Vc − R vs R) (PSMB9/R60H G/G + 20S % NUCLEAR STAINING 30-90, Excluded): 345 days | Median PFS (Vc-R vs R) (PSMB9/R60H G/G + 20S % NUCLEAR STAINING 30-90, Selected): 280 days | Median PFS (Vc − R vs R) (PSMB9/R60H G/G + 20S % NUCLEAR STAINING 30-90, Total): 345 days | PFS median (Prior RX: 1 & CD68 POSITIVE FOLLICULAR: 0-50): 9.3 mo | PFS median (Prior Ritutux NO & CD68 POSITIVE FOLLICULAR: 0-50): 9.2 mo | PFS median (Race Group OTHER & 20S % NUCLEAR STAINING: >20): 3.8 mo | Median PFS (Vc-R vs R) (SEX MALE + 20S % NUCLEAR STAINING 30-90, Excluded): 357 days | Median PFS (Vc-R vs R) (SEX MALE + 20S % NUCLEAR STAINING 30-90, Selected): 235 days | Median PFS (Vc-R vs R) (SEX MALE + 20S % NUCLEAR STAINING 30-90, Total): 345 days | Median PFS (Vc − R vs R) (SEX MALE + P65 % POSITIVE CYTOPLASMIC SIGNAL >90%, Excluded): 375 days | Median PFS (Vc − R vs R) (SEX MALE + P65 % POSITIVE CYTOPLASMIC SIGNAL >90%, Selected): 271 days | Median PFS (Vc − R vs R) (SEX MALE + P65 % POSITIVE CYTOPLASMIC SIGNAL >90%, Total): 345 days | Median PFS (Vc-R vs R) (Selected: 20S % NUCLEAR STAINING 30-90 and P65 % POSITIVE CYTOPLASMIC SIGNAL >90%): 277 days | Median PFS (Vc-R vs R) (Selected: AGEGRP <=65 and CD68 OVERALL POSITIVE 0-50): 279 days | Median PFS (Vc-R vs R) (Selected: AGEGRP <=65 and P65 % POSITIVE CYTOPLASMIC SIGNAL >90%): 277 days | Median PFS (Vc-R vs R) (Selected: CD68 OVERALL POSITIVE 0-50 and P65 % POSITIVE C[…] >90%): 279 days | Median PFS (Vc-R vs R) (Selected: FLIPI High and P65 % POSITIVE CYTOPLASMIC SIGNAL >90%): 212 days | Median PFS (Vc-R vs R) (Selected: PRITUX NO and P65 % NUCLEAR STAINING 0): 287 days | Median PFS (Vc-R vs R) (Selected: PSMB1/P11A C/G and ANNARBOR >=III): 275 days | Median PFS (Vc-R vs R) (Selected: PSMB1/P11A C/G and P65 % NUCLEAR STAINING 0): 279 days | PFS median (Sex MALE & 20S % NUCLEAR STAINING: >20): 7.7 mo | Median PFS (Vc-R vs R) (TLAST >1 year + CD68 POSITIVE FOLLICULAR 0-50, Excluded): 288 days | Median PFS (Vc-R vs R) (TLAST >1 year + CD68 POSITIVE FOLLICULAR 0-50, Selected): 357 days | Median PFS (Vc-R vs R) (TLAST >1 year + CD68 POSITIVE FOLLICULAR 0-50, Total): 346 days | Median PFS (Vc − R vs R) (TLAST >1 year + P65 % POSITIVE CYTOPLASMIC SIGNAL >90%, Excluded): 280 days | Median PFS (Vc − R vs R) (TLAST >1 year + P65 % POSITIVE CYTOPLASMIC SIGNAL >90%, Selected): 357 days | Median PFS (Vc − R vs R) (TLAST >1 year + P65 % POSITIVE CYTOPLASMIC SIGNAL >90%, Total): 345 days | PFS median (Total biomarker evaluable, N = 356): 11.3 months | Median PFS (Vc-R vs R) (Total: 20S % NUCLEAR STAINING 30-90 and P65 % POSITIVE CYTOPLASMIC SIGNAL >90%): 345 days | Median PFS (Vc-R vs R) (Total: AGEGRP <=65 and CD68 OVERALL POSITIVE 0-50): 345 days | Median PFS (Vc-R vs R) (Total: AGEGRP <=65 and P65 % POSITIVE CYTOPLASMIC SIGNAL >90%): 345 days | Median PFS (Vc-R vs R) (Total: CD68 OVERALL POSITIVE 0-50 and P65 % POSITIVE C[…] >90%): 345 days | Median PFS (Vc-R vs R) (Total: FLIPI High and P65 % POSITIVE CYTOPLASMIC SIGNAL >90%): 345 days | Median PFS (Vc-R vs R) (Total: PRITUX NO and P65 % NUCLEAR STAINING 0): 345 days | Median PFS (Vc-R vs R) (Total: PSMB1/P11A C/G and ANNARBOR >=III): 345 days | Median PFS (Vc-R vs R) (Total: PSMB1/P11A C/G and P65 % NUCLEAR STAINING 0): 338 days | PFS (confirmation cohort 1 (excludes China; n=106), biomarker positive): 9.5 months | median PFS (confirmation cohort 2 (includes China subjects and subjects with missing data), biomarker positive): 9.5 months | PFS (discovery cohort, CD68 Low and PSMB P11A): 8.5 months | median PFS (subjects with PSMB1 P11A (C/G)): 9.5 months | median PFS (subjects with higher CD68 expression): 16.2 months | median PFS (subjects with low CD68 (0-50)): 9.3 months
